Measurements from patent US20140275063A1, “NEW ENZYME INHIBITOR COMPOUNDS” (PROXIMAGEN LIMITED, priority 2011, published 2014).

Target: T1, human SSAO (Homo sapiens, UniProt Q16853)
T1 construct: made in house
T1 sequence (Q16853 29-763 limits assumed): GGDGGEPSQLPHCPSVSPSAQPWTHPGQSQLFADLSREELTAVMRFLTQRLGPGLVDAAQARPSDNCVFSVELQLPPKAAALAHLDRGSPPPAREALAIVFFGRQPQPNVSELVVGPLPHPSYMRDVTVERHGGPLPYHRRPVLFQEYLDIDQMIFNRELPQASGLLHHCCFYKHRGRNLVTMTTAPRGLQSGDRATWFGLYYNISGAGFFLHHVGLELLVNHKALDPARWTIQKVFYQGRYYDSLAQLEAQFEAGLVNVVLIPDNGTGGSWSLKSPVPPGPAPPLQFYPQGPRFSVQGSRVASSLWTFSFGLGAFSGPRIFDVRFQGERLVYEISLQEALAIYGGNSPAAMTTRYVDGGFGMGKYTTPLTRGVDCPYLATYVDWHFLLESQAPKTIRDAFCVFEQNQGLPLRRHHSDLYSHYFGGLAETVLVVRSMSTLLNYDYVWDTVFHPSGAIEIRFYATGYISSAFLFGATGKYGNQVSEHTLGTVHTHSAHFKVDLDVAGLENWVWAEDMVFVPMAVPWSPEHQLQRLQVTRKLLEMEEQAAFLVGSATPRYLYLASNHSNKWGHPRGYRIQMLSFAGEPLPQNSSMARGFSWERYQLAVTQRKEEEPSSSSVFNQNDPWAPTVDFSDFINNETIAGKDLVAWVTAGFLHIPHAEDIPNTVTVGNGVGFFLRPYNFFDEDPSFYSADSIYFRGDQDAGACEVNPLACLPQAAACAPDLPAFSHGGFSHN
Experiment: SSAO inhibitory activity (HRP-coupled hydrogen peroxide detection or 14C-benzaldehyde detection, benzylamine substrate)
Type: biochemical
Conditions: purified recombinantly expressed human SSAO, benzylamine as substrate, RT
Method: All primary assays were performed at RT. with purified recombinantly expressed human SSAO. Enzyme was prepared essentially as described in Öhman et al. (Protein Expression and Purification 46 (2006) 321-331). In addition, secondary- and selectivity assays were performed using SSAO prepared from various tissues or purified rat recombinant SSAO. The enzyme activity was assayed with benzylamine as substrate by measuring either benzaldehyde production, using ^14C-labeled substrate, or by utilizing the production of hydrogen peroxide in a horseradish peroxidase (HRP) coupled reaction. Briefly, test compounds were dissolved in dimethyl sulfoxide (DMSO) to a concentration of 10 mM. Dose-response measurements were assayed by either creating 1:10 serial dilutions in DMSO to produce a 7 point curve or by making 1:3 serial dilutions in DMSO to produce 11 point curves. The top concentrations were adjusted depending on the potency of the compounds and subsequent dilution in reaction buffer yielded a final DMSO concentration ≦2%.
In a horseradish peroxidase (HRP) coupled reaction, hydrogen peroxide oxidation of 10-acetyl-3,7-dihydroxyphenoxazine produced resorufin, which is a highly fluorescent compound (Zhout and Panchuk-Voloshina. Analytical Biochemistry 253 (1997) 169-174; Amplex® Red Hydrogen Peroxideperoxidase Assay kit, Invitrogen A22188). Enzyme and compounds in 50 mM sodium phosphate, pH 7.4 were set to pre-incubate in flat-bottomed microtiter plates for approximately 15 minutes before initiating the reaction by addition of a mixture of HRP, benzylamine and Amplex reagent. Benzylamine concentration was fixed at a concentration corresponding to the Michaelis constant, determined using standard procedures. Fluorescence intensity was then measured at several time points during 1-2 hours, exciting at 544 nm and reading the emission at 590 nm. For the human SSAO assay final concentrations of the reagents in the assay wells were: SSAO enzyme 1 μg/ml, benzylamine 100 μM, Amplex reagent 20 μM, HRP 0.1 U/mL and varying concentrations of test compound. The inhibition was measured as % decrease of the signal compared to a control without inhibitor (only diluted DMSO). The background signal from a sample containing no SSAO enzyme was subtracted from all data points. Data was fitted to a four parameter logistic model and IC50 values were calculated using the Graph Pad Prism 4 or XLfit 4 programs.
SSAO activity was assayed using 14C-labeled benzylamine and analysed by measuring radioactive benzaldehyde. In a white 96-well optiplate (Packard), 20 μL of diluted test compound was pre-incubated at RT. with 20 μL SSAO enzyme for approximately 15 minutes with continuous agitation. All dilutions were made with PBS. The reaction was initiated by adding 20 μL of the benzylamine substrate solution containing [7-14C] Benzylamine hydrochloride (CFA589, GE Healthcare). The plate was incubated for 1 hour as above after which the reaction was stopped by acidification (10 μL 1 M HCl). Then 90 μL Micro Scint-E solution (Perkin-Elmer) was added to each well and the plate was continuously mixed for 15 minutes. Phase separation occurred instantly and activity was read in a Topcount scintillation counter (Perkin-Elmer). In the final reaction well, the human recombinant SSAO concentration was 10 μg/ml. In order to optimize sensitivity, the substrate concentration was decreased as compared to the HRP coupled assay in order to get a higher fraction of radioactive product. In the human SSAO assay, benzylamine concentration was 40 μM (0.2 μCi/mL). Data was analysed as above.

Row | SMILES | IC50 [µM]
1 | Cc1ccc(-n2nc(N3CCOC(COCCN)C3)c3ccncc32)cc1 (centres unmarked) [Compound 32, 2-({4-[1-(4-Methylphenyl)-1H-pyrazolo[3,4-c]pyridin-3-yl]morpholin-2-yl}methoxy)ethan-1-amine] | 0.1 to 0.5
2 | O=C(NC1CCNCC1)N1CCC(c2cn(-c3ccc(Cl)cc3)c3cnccc23)CC1 [Compound 7, 4-[1-(4-Chlorophenyl)-1H-pyrrolo[2,3-c]pyridin-3-yl]-N-(piperidin-4-yl) piperidine-1-carboxamide] | < 0.1
3 | CN1CCN(CC2CN(c3nn(-c4ccc(Cl)cc4)c4cnccc34)CCO2)CC1 (centres unmarked) [Compound 35, 4-[1-(4-Chlorophenyl)-1H-pyrazolo[3,4-c]pyridin-3-yl]-2-[(4-methylpiperazin-1-yl)methyl]morpholine] | 0.1 to 0.5
4 | Cc1ccc(-n2nc(N3CCOC(CNC(=O)NC4CC4)C3)c3ccncc32)cc1 (centres unmarked) [Compound 31, 3-Cyclopropyl-1-({4-[1-(4-methylphenyl)-1H-pyrazolo[3,4-c]pyridin-3-yl]morpholin-2-yl}methyl)urea] | < 0.1
5 | CN(C)[C@H]1CCN(C(=O)CC2COCCN2c2nn(-c3ccc(Cl)cc3)c3cnccc23)C1 (stereo partly drawn) [Compound 56, 2-{4-[1-(4-Chlorophenyl)-1H-pyrazolo[3,4-c]pyridin-3-yl]morpholin-3-yl}-1-[(3S)-3-(dimethylamino)pyrrolidin-1-yl] ethan-1-one] | < 0.1
6 | Clc1ccc(-n2nc(N3CCC(CN4CCNCC4)CC3)c3ccncc32)cc1 [Compound 49, 1-({1-[1-(4-Chlorophenyl)-1H-pyrazolo[3,4-c]pyridin-3-yl]piperidin-4-yl}methyl)piperazine] | 0.1 to 0.5
7 | CNC(=O)NCC1CN(c2nn(-c3ccc(Cl)cc3)c3cnccc23)CCO1 (centres unmarked) [Compound 60, 1-({4-[1-(4-Chlorophenyl)-1H-pyrazolo[3,4-c]pyridin-3-yl]morpholin-2-yl}methyl)-3-methylurea] | < 0.1
8 | Clc1ccc(-n2nc(N3CCC(CNCC4CCNCC4)CC3)c3ccncc32)cc1 [Compound 50, ({1-[1-(4-Chlorophenyl)-1H-pyrazolo[3,4-c]pyridin-3-yl]piperidin-4-yl}methyl)(piperidin-4-ylmethyl)amine] | 0.1 to 0.5

Further lines, results first:

Row | IC50 [µM] | SMILES
9 | < 0.1 | CN1CCC(NC(=O)N2CCC(c3cn(-c4ccc(Cl)cc4)c4cnccc34)CC2)CC1 [Compound 8, 4-[1-(4-Chlorophenyl)-1H-pyrrolo[2,3-c]pyridin-3-yl]-N-(1-methylpiperidin-4-yl)piperidine-1-carboxamide]
10 | < 0.1 | O=C(N1CCC(c2cn(-c3ccc(Cl)cc3)c3cnccc23)CC1)N1CCN(C2CC2)CC1 [Compound 16, 1-({4-[1-(4-Chlorophenyl)-1H-pyrrolo[2,3-c]pyridin-3-yl]piperidin-1-yl}carbonyl)-4-cyclopropyl-piperazine]
11 | < 0.1 | O=C(NCc1nn[nH]n1)N1CCC(c2cn(-c3ccc(Cl)cc3)c3cnccc23)CC1 [Compound 61, 4-[1-(4-Chlorophenyl)-1H-pyrrolo[2,3-c]pyridin-3-yl]-N-(2H-1,2,3,4-tetrazol-5-ylmethyl)piperidine-1-carboxamide; trifluoroacetic acid]
12 | < 0.1 | CN1CCN(C(=O)N2CCC(c3cn(-c4ccc(Cl)cc4)c4cnccc34)CC2)CC1 [Compound 5, 1-({4-[1-(4-Chlorophenyl)-1H-pyrrolo[2,3-c]pyridin-3-yl]piperidin-1-yl}carbonyl)-4-methylpiperazine]
13 | < 0.1 | CC(C)N1CCC(CNC(=O)N2CCC(c3cn(-c4ccc(Cl)cc4)c4cnccc34)CC2)CC1 [Compound 27, 4-[1-(4-Chlorophenyl)-1H-pyrrolo[2,3-c]pyridin-3-yl]-N-{[1-(propan-2-yl)piperidin-4-yl]methyl}piperidine-1-carboxamide; formic acid]
14 | < 0.1 | Clc1ccc(-n2cc(C3CCN(C4CCNC4)CC3)c3ccncc32)cc1 (centres unmarked) [Compound 1, 4-[1-(4-Chlorophenyl)-1H-pyrrolo[2,3-c]pyridin-3-yl]-1-(pyrrolidin-3-yl)piperidine]
15 | < 0.1 | CC(C)N1CCC(NC(=O)N2CCC(c3cn(-c4ccc(Cl)cc4)c4cnccc34)CC2)CC1 [Compound 9, 4-[1-(4-Chlorophenyl)-1H-pyrrolo[2,3-c]pyridin-3-yl]-N-[1-(propan-2-yl)piperidin-4-yl] piperidine-1-carboxamide]
16 | < 0.1 | CC(=O)NCCCNC(=O)N1CCC(c2cn(-c3ccc(Cl)cc3)c3cnccc23)CC1 [Compound 29, N-[3-({4-[1-(4-Chlorophenyl)-1H-pyrrolo[2,3-c]pyridin-3-yl]piperidin-1-yl}carbonylamino)propyl]acetamide]
17 | < 0.1 | CN1CCC(CNC(=O)N2CCC(c3cn(-c4ccc(Cl)cc4)c4cnccc34)CC2)CC1 [Compound 11, 4-[1-(4-Chlorophenyl)-1H-pyrrolo[2,3-c]pyridin-3-yl]-N-[(1-methylpiperidin-4-yl)methyl] piperidine-1-carboxamide]
